Laboratory results: patent US10213451B2, “Methods and compounds for modulating the secretion or expression of adhesion proteins or angiopoietins of cells” (PACIFIC ARROW LIMITED, priority 2004, dated 2019)
Values after ≈ are worked out from the molar mass of the structure shown.

Tests used:
human red blood cells = test: Hemolytic activity; type: cell-based; details: FIG. 3D
Experimental: (§1) Methods: • Human whole blood was obtained from the Houston Gulf Coast Blood Center. • Red blood cells were isolated by the following method: Human blood (in EDTA) was diluted 1:1 with PBS, underlay with 4 mL of Histopaque-1077 (SIGMA) and was centrifuged at 400 g for 30 min. • Red blood cells (RBC) were collected and washed three times with PBS. • 10% suspensions of RBC were prepared with PBS before use. • 50 μL of RBC suspension was added to 2 mL of saponins with different concentration. • The suspension was mixed by vortexing then left to sit at room temperature for 60 minutes. • The suspension was centrifuged at 3000 rpm for 5 min. Absorbance of the supernatant was measured at 540 nm.

[1] = test system: red blood cells (hemolysis); test: Hemolytic activity; type: cell-based, human; details: human red blood cells (isolated from whole blood); human red blood cells, FIG. 5A
Experimental: as §1

[2] = test system: (bladder)TB9 cells / HTB-9; test: MTT assay bladder cells; type: cell-based, human
Experimental: Cells. Human cancer cell lines were obtained from American Type Culture Collection: HTB-9 (bladder), HeLa-S3 (cervix), DU145 (prostate), H460 (lung), MCF-7 (breast), K562 (leukocytes), HCT116 (colon), HepG2 (liver), U2OS (bone), T98G (brain), SK-MEL-5 (Skin) and OVCAR-3 (ovary). The cells were grown in following culture media: HeLa-53, DU145, MCF-7, Hep-G2 and T98G are in MEN (Earle's salts); HTB-9, H460, K562 and OVCAR-3 in RPMI-1640; HCT-116 and U2OS in McCoy-5A. They are supplemented with 10% fetal calf serum, glutamine and antibiotics, and incubated in an incubator with 5% CO2 humidified at 37° C.
MTT Assay. The procedure for MTT assay followed the method described by Carmichael et al. (1987) with modifications. The cells were seeded into a 96-well plate at concentration of 10,000/well for HTB-9, HeLa, H460, HCT116, T98G and OVCAR-3), 15,000/well for DU145, MCF-7, HepG2 and U2OS), and 40,000/well for K562 for 24 hours before drug-treatment. The cells were then exposed to the drugs for 48 hours (72 hours for HepG2 and U2OS, and 96 hours for MCF-7). After the drug-treatment, MTT (0.5 mg/mL) was added to cultures and incubated for an hour. The formazan (product of the reduction of tetrazolium by viable cells) formed and was dissolved with DMSO and the O.D. at 490 nm, and was measured by an ELISA reader. The MTT level of the cells before drug-treatment was also measured (T0). The % cell-growth (% G) is calculated as: % G=(TD−T0/TC−T0)×100(1), where TC or TD represents O.D. readings of control or drug-treated cells. When T0>TD, then the cytotoxicity (LC) expressed as % of the control is calculated as: % LC=(TD−T0/T0)×100(2).

[3] = test system: ES2 cells attached to flasks; test: Inhibition of cell adhesion to flasks, ES2; type: cell-based
Experimental: (§2) Methods and Results. ES2 or Hey8A cells were plated in T25 flasks with medium containing 5 ug/ml of Xanifolia-Y. Cultures were incubated for 5 hours. Attached cells were removed from flasks by trypsinization and the amounts were counted. Compare to no drug controls, 86±4% of ES2 cells and 67±8% of Hey8A cells were found attached to flasks under this condition. At 5 ug/ml Xanifolia-Y, over 90% of unattached cells are alive as determined by the trypan Blue exclusion assay and by their ability to re-attach to flasks when plating in medium without Xanifolia-Y. However, with 10 ug/ml Xanifolia-Y, less than 40% of cells attached to flasks and many of them are dead cells.
as §2, with “Results:” for “Results.”

Hey 8A = test: MTT assay Hey 8A; type: cell-based, human
Experimental: (§3) Majority of ovarian cancers arise from the surface epithelium of ovary, most of them belong to the histological subtypes of clear cell and serous carcinoma. We obtained 10 more human ovarian carcinoma cell-lines of these histological subtypes for these studies. The inhibition activity exerted by Xanifolia-Y was determined with MTT assay.
Cells: Hey8A (human ovarian carcinoma cells) were grew in RPMI 1640 medium to 90% confluent before drug-treatment. Drug-treatment: Cells cultures were replaced with fresh RPMI medium containing either DMSO (as control) [D1]; or Xanifolia-Y (10, 15, or 20 ug/ml) [Y1, Y2 and Y3]. Aliquot of medium was removed as 0 hours sample and no FN was detected at this time. After 24 hours, aliquot of culture medium was taken out for Fibronectin determination (Western blot method). Cell viability at 24 hours was determined by MTT assay. Cultures were replaced with RPMI medium (5 ml) with MTT and incubated for an hour. The formation of formazan was dissolved in DMSO and OD at 570 nm was measured.

Caov 3 = test: MTT assay Caov 3; type: cell-based; details: Homo sapiens; Caov 3, Serous
Experimental: as §3

SMILES	hemolytic activity of hydrolysed products of compound Y (human red blood cells)	IC50 at 60 min [1]	growth of cells compared to the DMSO control (MTT) ([2]; HTB-9, 10 ug/ml)	IC50 ([2]; Homo sapiens, (bladder)TB9 cells, read-out: IC50)	cells attached to flasks, compared to no drug controls ([3]; ES2 cells, 5 ug/ml, 5 hours)	unattached cells alive (trypan Blue exclusion, re-attachment) ([3]; ES2 or Hey8A cells, 5 ug/ml)	cells attached to flasks ([3]; ES2 or Hey8A cells, 10 ug/ml)	state of cells after drug-treatment (Hey 8A; Hey8A, 15 ug/ml and 20 ug/ml, 24 hours)	activity at 10 µg/mL (Hey 8A; Homo sapiens, Hey8A, 10 ug/ml, 24 hours, read-out: growth of cells, % of control (MTT))	IC50 (Hey 8A; Homo sapiens, Hey 8A, Serous)	IC50 (Caov 3)
C/C=C(/C)C(=O)O[C@H]1[C@H](OC(=O)/C(C)=C\C)[C@@]2(CO)C(CC1(C)C)C1=CCC3[C@@]4(C)CC[C@H](O)C(C)(C)C4CC[C@@]3(C)[C@]1(C)[C@@H](O)[C@H]2O (some centres unmarked) [ACH-Y]	reduced hemolytic activity	–	–	–	–	–	–	–	–	–	–
C/C=C(/C)C(=O)O[C@H]1[C@H](OC(=O)/C(C)=C\C)[C@@]2(CO)C(CC1(C)C)C1=CCC3[C@@]4(C)CC[C@H](O[C@@H]5OC(C(=O)O)[C@@H](O)C(O[C@@H]6O[C@@H](CO)C(O)C6O)C5O[C@@H]5OC(CO)[C@H](O)C(O)C5O)C(C)(C)C4CC[C@@]3(C)[C@]1(C)[C@@H](O)[C@H]2O (stereo partly drawn) [Xanifolia-Y, 3-O-[β-D-galactopyranosyl (1→2)]-α-L-arabinofuranosy (1→3)-β-D-glucuronopyranosyl-21,22-O-diangeloyl-3β, 15α, 16α, 21β, 22α, 28-hexahydroxyolean-12-ene]	–	1 µg/mL (≈ 0.876 µM)	77%-91%	5 µg/mL (≈ 4.38 µM)	86±4%	over 90%	less than 40%	found dead (floating)	83%	10.5 µM	7 µM
